One assay concerns the target PKR(wt) (Homo sapiens, UniProt P30613). The experiment in a line: Luminescence Biochemical Assay (Kinase Glo Plus), wild type PKR. The following applies: without FBP; for activation at 1.54 µM: 1.54 μM compound, read-out: AC50 LUM KGP woFBP % Fold@1.54 μM mean; for AC50: read-out: AC50 LUM KGP woFBP AC50 μM gmean; for Emax: read-out: AC50 LUM KGP woFBP MAX % FOLD mean.

The next assay concerns the target PKR(G332S) (Homo sapiens, UniProt P30613, G332S). The experiment in a line: Luminescence Biochemical Assay (Kinase Glo Plus), PKR G332S mutant. The following applies: with FBP; for activation at 1.54 µM: 1.54 μM compound, read-out: AC50 LUM KGP FBP % Fold@1.54 μM mean; for AC50: read-out: AC50 LUM KGP FBP AC50 μM gmean (column A); for Emax: read-out: AC50 LUM KGP FBP MAX % FOLD mean. In general terms: Kinase-Glo reads ATP consumption through a luciferase reaction.

A further assay has as its target PKR(R510Q) (Homo sapiens, UniProt P30613, R510Q). The experiment in a line: Luminescence Biochemical Assay (Kinase Glo Plus), PKR R510Q mutant. Particulars: without FBP; for activation at 1.54 µM: 1.54 μM compound, read-out: AC50 LUM KGP woFBP % Fold@1.54 μM mean; for AC50: read-out: AC50 LUM KGP woFBP AC50 μM gmean; for Emax: read-out: AC50 LUM KGP woFBP MAX % FOLD mean.

Chain of PKR(wt) (P30613 whole entry): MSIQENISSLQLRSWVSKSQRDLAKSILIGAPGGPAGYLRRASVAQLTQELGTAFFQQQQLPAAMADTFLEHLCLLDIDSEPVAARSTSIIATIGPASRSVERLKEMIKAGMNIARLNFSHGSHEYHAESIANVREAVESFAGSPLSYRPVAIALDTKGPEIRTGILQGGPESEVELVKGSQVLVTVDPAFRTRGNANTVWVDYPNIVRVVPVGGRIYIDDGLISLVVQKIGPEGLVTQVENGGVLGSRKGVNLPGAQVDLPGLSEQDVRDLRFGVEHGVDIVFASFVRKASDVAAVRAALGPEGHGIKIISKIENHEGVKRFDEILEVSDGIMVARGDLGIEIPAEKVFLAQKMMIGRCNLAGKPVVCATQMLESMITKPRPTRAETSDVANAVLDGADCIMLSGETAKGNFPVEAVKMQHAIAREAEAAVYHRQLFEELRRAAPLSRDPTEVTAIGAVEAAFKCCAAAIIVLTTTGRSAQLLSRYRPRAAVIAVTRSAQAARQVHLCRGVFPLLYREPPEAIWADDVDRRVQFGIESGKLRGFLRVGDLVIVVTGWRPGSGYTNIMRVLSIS
Chain of PKR(G332S) (P30613 whole entry G332S): as the sequence (P30613 whole entry) above, with G332S counted along it
Chain of PKR(R510Q) (P30613 whole entry R510Q): as the sequence (P30613 whole entry) above, with R510Q counted along it

Broadly, the AC50 is the concentration giving half of the maximal activity seen. Take `O=C(NCc1ccc(F)cc1)N1CC2=C(C1)CN(S(=O)(=O)c1ccc(OC(F)F)cc1)C2` [Example 21-13, 5-[4-(Difluoromethoxy)benzenesulfonyl]-N-[(4-fluorophenyl)methyl]-1H,2H,3H,4H,5H,6H-pyrrolo[3,4-c]pyrrole-2-carboxamide]: the activation at 1.54 µM at PKR(wt) fell in the range of 250 to 50000%; at PKR(G332S) it was 75 to 250%; at PKR(R510Q) it was 250 to 50000%. Also, the AC50 is 0.1 to 1 µM on PKR(wt), at most 0.1 µM at PKR(G332S) and 0.1 to 1 µM at PKR(R510Q). In addition, the Emax at PKR(wt) is 250 to 500%; at PKR(G332S) it was 75 to 250%; at PKR(R510Q) it was 250 to 500%.

In the case of `O=C([C@@H](O)c1ccccn1)N1CC2=C(C1)CN(S(=O)(=O)c1ccc(OC(F)F)cc1)C2` (single isomer, unassigned) [Example 8-3], the figures for the activation at 1.54 µM at PKR(wt), on PKR(G332S) and at PKR(R510Q) were 250 to 50000%, 75 to 250% and 250 to 50000%, respectively. Besides, the concentration at half-maximal activity (AC50) at PKR(wt), on PKR(G332S) and at PKR(R510Q) was 0.1 to 1 µM in each case. The figures for the Emax on PKR(wt), at PKR(G332S) and on PKR(R510Q) were 250 to 500%, 75 to 250% and 250 to 500%, respectively.

For the compound `COc1ccc(CNC(=O)N2CC3=C(C2)CN(S(=O)(=O)c2ccc4ncsc4c2)C3)cc1` [Example 21-16, 5-(1,3-Benzothiazole-6-sulfonyl)-N-[(4-methoxyphenyl)methyl]-1H,2H,3H,4H,5H,6H-pyrrolo[3,4-c]pyrrole-2-carboxamide], at PKR(wt), the activation at 1.54 µM lay in the range of 250 to 50000%, the half-maximal activity concentration (AC50) is at most 0.1 µM and the Emax lay in the range of 250 to 500%. Further, at PKR(G332S), the activation at 1.54 µM fell in the range of 75 to 250%, the AC50 is at most 0.1 µM and the Emax was in the range of 75 to 250%. On PKR(R510Q), the activation at 1.54 µM was 250 to 50000%, the half-maximal activity concentration (AC50) was in the range of 0.1 to 1 µM and the Emax fell in the range of 250 to 500%.

As to `O=C(N1CC2=C(C1)CN(S(=O)(=O)c1ccccn1)C2)C1(O)CC1` [Example 18-65, 1-[5-(Pyridine-2-sulfonyl)-1H,2H,3H,4H,5H,6H-pyrrolo[3,4-c]pyrrole-2-carbonyl]cyclopropan-1-ol], on PKR(wt), the activation at 1.54 µM is 75 to 250%, the AC50 fell in the range of 1 to 40 µM and the Emax is 250 to 500%. Moreover, at PKR(G332S), the activation at 1.54 µM is 75 to 250%, the AC50 is 1 to 40 µM and the Emax lay in the range of 75 to 250%. At PKR(R510Q), the activation at 1.54 µM was in the range of 75 to 250%, the AC50 was in the range of 1 to 40 µM and the Emax lay in the range of 75 to 250%.

For the compound `O=C(NCc1cccc(F)c1)N1CC2=C(C1)CN(S(=O)(=O)c1ccc3ncsc3c1)C2` [Example 21-36, 5-(1,3-Benzothiazole-6-sulfonyl)-N-[(3-fluorophenyl)methyl]-1H,2H,3H,4H,5H,6H-pyrrolo[3,4-c]pyrrole-2-carboxamide], the activation at 1.54 µM on PKR(wt), on PKR(G332S) and on PKR(R510Q) was 75 to 250% each time. Besides, the AC50 lay in the range of 1 to 40 µM on PKR(wt), 0.1 to 1 µM on PKR(G332S) and 1 to 40 µM at PKR(R510Q). In addition, the Emax was 250 to 500% on PKR(wt), 75 to 250% at PKR(G332S) and 250 to 500% at PKR(R510Q).

In the case of `N#Cc1ccccc1S(=O)(=O)N1CC2=C(CN(C(=O)[C@H](O)c3ccccc3)C2)C1` [Example 18-47, 2-({5-[(2R)-2-hydroxy-2-phenylacetyl]-1H,2H,3H,4H,5H,6H-pyrrolo[3,4-c]pyrrol-2-yl}sulfonyl)benzonitrile], at PKR(wt), the activation at 1.54 µM is 75 to 250%, the concentration at half-maximal activity (AC50) lay within 0.1 to 1 µM and the Emax is 75 to 250%. For the same compound, at PKR(G332S), the activation at 1.54 µM was in the range of 75 to 250%, the half-maximal activity concentration (AC50) was in the range of 1 to 40 µM and the Emax is 75 to 250%. Moreover, at PKR(R510Q), the activation at 1.54 µM was 75 to 250%, the concentration at half-maximal activity (AC50) lay within 0.1 to 1 µM and the Emax lay within 75 to 250%.

As for `O=C(C(F)c1ccccc1)N1CC2=C(C1)CN(S(=O)(=O)c1ccc(OC(F)F)cc1)C2` (stereo not drawn) [Example 18-24, 1-{5-[4-(Difluoromethoxy)benzenesulfonyl]-1H,2H,3H,4H,5H,6H-pyrrolo[3,4-c]pyrrol-2-yl}-2-fluoro-2-phenylethan-1-one], on PKR(wt), the activation at 1.54 µM is 250 to 50000%, the concentration at half-maximal activity (AC50) was in the range of 0.1 to 1 µM and the Emax was in the range of 250 to 500%. In addition, on PKR(G332S), the activation at 1.54 µM fell in the range of 75 to 250%, the AC50 was at most 0.1 µM and the Emax was 75 to 250%. Moreover, at PKR(R510Q), the activation at 1.54 µM fell in the range of 250 to 50000%, the half-maximal activity concentration (AC50) is at most 0.1 µM and the Emax was 250 to 500%.

`CN1CCOc2ccc([C@@H](O)C(=O)N3CC4=C(C3)CN(S(=O)(=O)c3ccc(OC(F)F)cc3)C4)cc21` (single isomer, unassigned) [Example 10-1]: at PKR(wt), the activation at 1.54 µM was 75 to 250%, the AC50 was 1 to 40 µM and the Emax is 250 to 500%. At PKR(G332S), the activation at 1.54 µM fell in the range of 75 to 250%, the AC50 is 0.1 to 1 µM and the Emax lay within 75 to 250%. In addition, at PKR(R510Q), the activation at 1.54 µM was 75 to 250%, the half-maximal activity concentration (AC50) was in the range of 1 to 40 µM and the Emax was 250 to 500%.

For `O=C([C@@H]1CCCO1)N1CC2=C(C1)CN(S(=O)(=O)c1ccccn1)C2` [Example 18-69, 2-({5-[(2S)-oxolane-2-carbonyl]-1H,2H,3H,4H,5H,6H-pyrrolo[3,4-c]pyrrol-2-yl}sulfonyl)pyridine], on PKR(wt), the activation at 1.54 µM lay within 75 to 250%, the half-maximal activity concentration (AC50) is 1 to 40 µM and the Emax lay within 75 to 250%. In addition, at PKR(G332S), the activation at 1.54 µM was in the range of 75 to 250%, the half-maximal activity concentration (AC50) fell in the range of 1 to 40 µM and the Emax is 75 to 250%. In addition, on PKR(R510Q), the activation at 1.54 µM was 75 to 250%, the AC50 was 1 to 40 µM and the Emax fell in the range of 75 to 250%.

As to `O=C(N1CC2=C(C1)CN(S(=O)(=O)c1cccc3cccnc13)C2)N1CC(O)(Cc2ccccc2)C1` [Example 12-1, (3-Benzyl-3-hydroxyazetidin-1-yl)(5-(quinolin-8-ylsulfonyl)-4,5-dihydropyrrolo[3,4-c]pyrrol-2(1H,3H,4)-yl)methanone], on PKR(wt), the activation at 1.54 µM lay in the range of 75 to 250%, the AC50 lay within 1 to 40 µM and the Emax is 75 to 250%. In addition, on PKR(G332S), the activation at 1.54 µM is 75 to 250%, the AC50 fell in the range of 1 to 40 µM and the Emax fell in the range of 75 to 250%. At PKR(R510Q), the activation at 1.54 µM lay in the range of 75 to 250%, the concentration at half-maximal activity (AC50) lay in the range of 1 to 40 µM and the Emax lay within 75 to 250%.

In the case of `O=C([C@H](O)c1ccc(F)cc1)N1CC2=C(C1)CN(S(=O)(=O)c1ccccn1)C2` [Example 18-63, (2R)-2-(4-fluorophenyl)-2-hydroxy-1-[5-(pyridine-2-sulfonyl)-1H,2H,3H,4H,5H,6H-pyrrolo[3,4-c]pyrrol-2-yl]ethan-1-one], on PKR(wt), the activation at 1.54 µM fell in the range of 75 to 250%, the half-maximal activity concentration (AC50) is 0.1 to 1 µM and the Emax is 250 to 500%. Besides, on PKR(G332S), the activation at 1.54 µM was 75 to 250%, the concentration at half-maximal activity (AC50) fell in the range of 1 to 40 µM and the Emax was 75 to 250%. Further, on PKR(R510Q), the activation at 1.54 µM was in the range of 250 to 50000%, the AC50 lay in the range of 0.1 to 1 µM and the Emax is 250 to 500%.

For the compound `CN1CCOc2ccc(S(=O)(=O)N3CC4=C(CN(C(=O)[C@H]5CCCO5)C4)C3)cc21` [Example 18-2, 4-Methyl-6-({5-[(2R)-oxolane-2-carbonyl]-1H,2H,3H,4H,5H,6H-pyrrolo[3,4-c]pyrrol-2-yl}sulfonyl)-3,4-dihydro-2H-1,4-benzoxazine], the activation at 1.54 µM on PKR(wt), on PKR(G332S) and at PKR(R510Q) was 75 to 250% each time. In addition, the AC50 on PKR(wt) fell in the range of 0.1 to 1 µM; at PKR(G332S) it was 1 to 40 µM; on PKR(R510Q), 1 to 40 µM. Further, the Emax at PKR(wt), on PKR(G332S) and at PKR(R510Q) was 75 to 250% throughout.

Turning to `COc1cccc(CNC(=O)N2CC3=C(C2)CN(S(=O)(=O)c2ccc(OC(F)F)cc2)C3)c1` [Example 21-11, 5-[4-(Difluoromethoxy)benzenesulfonyl]-N-[(3-methoxyphenyl)methyl]-1H,2H,3H,4H,5H,6H-pyrrolo[3,4-c]pyrrole-2-carboxamide], at PKR(wt), the activation at 1.54 µM was 250 to 50000%, the concentration at half-maximal activity (AC50) was at most 0.1 µM and the Emax lay in the range of 250 to 500%. For the same compound, at PKR(G332S), the activation at 1.54 µM fell in the range of 75 to 250%, the half-maximal activity concentration (AC50) was at most 0.1 µM and the Emax is 75 to 250%. Further, on PKR(R510Q), the activation at 1.54 µM lay in the range of 250 to 50000%, the AC50 was at most 0.1 µM and the Emax fell in the range of 250 to 500%.

As for `CN1CCOc2ccc([C@H](O)C(=O)N3CC4=C(C3)CN(S(=O)(=O)c3ccc(OC(F)F)cc3)C4)cc21` (single isomer, unassigned) [Example 10-2], on PKR(wt), the activation at 1.54 µM lay within 250 to 50000%, the half-maximal activity concentration (AC50) is at most 0.1 µM and the Emax is 250 to 500%. Moreover, on PKR(G332S), the activation at 1.54 µM is 75 to 250%, the AC50 was at most 0.1 µM and the Emax lay within 75 to 250%. In addition, on PKR(R510Q), the activation at 1.54 µM lay in the range of 250 to 50000%, the concentration at half-maximal activity (AC50) lay in the range of 0.1 to 1 µM and the Emax was 250 to 500%.

Turning to `O=C(NCc1ccccc1F)N1CC2=C(C1)CN(S(=O)(=O)c1ccc(OC(F)F)cc1)C2` [Example 21-15, 5-[4-(Difluoromethoxy)benzenesulfonyl]-N-[(2-fluorophenyl)methyl]-1H,2H,3H,4H,5H,6H-pyrrolo[3,4-c]pyrrole-2-carboxamide], at PKR(wt), the activation at 1.54 µM was 250 to 50000%, the AC50 was at most 0.1 µM and the Emax lay in the range of 250 to 500%. On PKR(G332S), the activation at 1.54 µM is 75 to 250%, the half-maximal activity concentration (AC50) is at most 0.1 µM and the Emax lay within 75 to 250%. Besides, on PKR(R510Q), the activation at 1.54 µM lay within 250 to 50000%, the concentration at half-maximal activity (AC50) is at most 0.1 µM and the Emax was 250 to 500%.
